# Reference: PubChem BioAssay (NCI)
#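 Dose response: 5 concentrations. Exposure: 48 h. Format: 96-well plates. Endpoint: linear interpolation; highest concentration if not reached. The concentration for 50% growth inhibition is given as GI50. Definition used: TGI = concentration required for complete inhibition of growth.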
# Experiments:
# Assay in all cases: growth of human tumour cells (NCI), 48 h
# CAKI-1 renal = system: CAKI-1 renal
# HCT-15 colon = system: HCT-15 colon
# OVCAR-8 ovarian = system: OVCAR-8 ovarian
# SN12C renal = system: SN12C renal
# SK-OV-3 ovarian = system: SK-OV-3 ovarian
# SF-268 CNS = system: SF-268 CNS
# UO-31 renal = system: UO-31 renal
# OVCAR-3 ovarian = system: OVCAR-3 ovarian
# IGROV1 ovarian = system: IGROV1 ovarian
# MALME-3M melanoma = system: MALME-3M melanoma
Compound,GI50 (CAKI-1 renal) [µM],TGI (CAKI-1 renal) [µM],GI50 (HCT-15 colon) [µM],TGI (HCT-15 colon) [µM],GI50 (OVCAR-8 ovarian) [µM],TGI (OVCAR-8 ovarian) [µM],GI50 (SN12C renal) [µM],TGI (SN12C renal) [µM],GI50 (SK-OV-3 ovarian) [µM],TGI (SK-OV-3 ovarian) [µM],GI50 (SF-268 CNS) [µM],TGI (SF-268 CNS) [µM],GI50 (UO-31 renal) [µM],GI50 (OVCAR-3 ovarian) [µM],TGI (OVCAR-3 ovarian) [µM],GI50 (IGROV1 ovarian) [µM],TGI (MALME-3M melanoma) [µM],TGI (UO-31 renal) [µM],TGI (IGROV1 ovarian) [µM],GI50 (MALME-3M melanoma) [µM]
O=c1cccc(C#CC#C/C=C/CO)o1,1.91,3.6,1.98,5.15,2.37,6.62,1.74,4.19,10.8,22.8,2.44,17.1,2.6,2.33,6.12,2.82,,,,
CC1=C(C(=O)Nc2ccccc2C)C(c2ccc(C3C(C(=O)Nc4ccccc4C)=CNC=C3C(=O)Nc3ccccc3C)cc2)C(C(=O)Nc2ccccc2C)=C(C)N1,,45.7,,41,,> 74.8,,21.9,,> 58.2,,17.4,,,39.5,,38.9,40,37.1,
CC1CCC23COC(=O)C2C(O)CCC3C1(C)CC(O)c1ccoc1 (centres undefined),,,,> 100,,> 100,,> 100,,> 100,,> 100,,,> 100,,> 100,> 100,> 100,
CN(C)CCC1(C2=CCCC2)CC/C(=C\c2ccccc2)C1=O (centres undefined),,26.3,,26.6,,29.6,,31.1,,,,42.2,,,28.5,,31.7,30.7,29.8,
O=c1/c(=C/c2ccc3c(c2)OCO3)sc2nnc(-c3ccco3)n12,,> 100,,,,> 100,,> 100,,> 100,,> 100,,,> 100,,> 100,> 100,> 100,
O=S(=O)(NCCCNc1cc(-c2cn(-c3ccccc3)nc2-c2cccc(O)c2)ccn1)c1ccc(Cl)cc1,2.3,12,1.34,3.45,2.11,6.06,2.23,6.09,2.35,7.35,1.55,5.18,2.03,1.67,3.7,2.96,,8.64,13.2,
C/C(=N\NC(=O)c1ccncc1)c1ccc(O)cc1O,2.37,8,4.83,> 100,2.93,> 100,6.48,> 100,5.34,> 100,2.19,> 100,2.82,4.59,> 100,4.89,,20.5,63.4,
Cc1nn(-c2ccc(Br)cc2)c(C)c1CC(=O)c1cc(O)ccc1O,12.2,27.3,4.61,15.8,8.09,23.2,6.79,16.6,,,5.6,17.6,15.9,12.9,38.8,17.2,,> 50,> 50,
CC(Oc1ccc2cc(C(=O)c3ccccc3)c(=O)oc2c1)C(=O)O (centres undefined),,> 100,,,,> 100,,> 100,,> 100,,> 100,,,> 100,,> 100,> 100,> 100,
COC(=O)C1C2CCCN2OC1(C)CO (centres undefined),,> 100,,> 100,,> 100,,> 100,,> 100,,> 100,,,> 100,,,> 100,> 100,
COc1ccc(C(=O)O)c(Cc2ccc3ccccc3c2)c1,,> 100,,,,> 100,,> 100,,> 100,,> 100,,,> 100,,> 100,> 100,> 100,
CC([O-])C(=O)[O-].NCC1CCC1CN.[Pt+4] (centres undefined),> 10,> 10,> 10,> 10,> 10,> 10,> 10,> 10,> 10,> 10,> 10,> 10,,> 10,> 10,> 10,> 10,,> 10,> 10
O=C1C(Cl)=C(Nc2cccc(O)c2)C(=O)N1c1cccc(Cl)c1Cl,3.14,20.2,20.7,56.7,15.1,30.4,14.5,28.2,32.9,> 100,11.7,28.8,23.3,,,5.96,53.9,> 100,23.4,11.7
CN1CCCCC1CCN1c2ccccc2Sc2ccc(S(C)=O)cc21 (centres undefined),,> 100,,> 100,,> 100,,> 100,,> 100,,> 100,,,> 100,,> 100,,> 100,
C[C@]12CC[C@H]3[C@@H](C[C@@H]4N=C(c5ccc(O)cc5)S[C@@]45C[C@H](O)CC[C@]35C)[C@@H]1CC[C@@H]2O,4.12,> 100,2.43,20.7,40.9,> 100,,,19,> 100,5.32,> 100,2.48,8.67,83.7,11.1,> 100,20.4,> 100,3.76
Cc1cc2c(c(N)c1C)C(=O)c1ccccc1C2=O,,55.3,,> 100,,> 100,,> 100,,49.2,,> 100,,,,,> 100,33.1,> 100,
CCN(CC(COc1ccc2c(c1)[n+]([O-])nc(N)[n+]2[O-])OC(C)=O)C(C)=O (centres undefined),,> 100,,> 100,,> 100,,> 100,,74.9,,> 100,,,> 100,,,> 100,> 100,
ClC[Si]12OCCN(CCO1)CCO2,,> 100,,,,> 100,,> 100,,> 100,,> 100,,,> 100,,> 100,> 100,> 100,
O=C(O)C1OC(Oc2cc(O)c3c(=O)cc(-c4ccc(O)cc4)oc3c2)C(O)C(O)C1O (centres undefined),,> 100,,,,> 100,,> 100,,,,> 100,,,> 100,,> 100,> 100,,
CC1=C(c2cc(C(=O)Nc3nccs3)nc(NC#N)n2)Sc2ccccc2N1,,> 100,,> 100,,> 100,,> 100,,,,> 100,,,> 100,,> 100,> 100,> 100,
COc1ccc(Cn2c(Br)c3c(c2-c2cc(OC)c(OC)c(OC)c2)CCc2sc(NC(C)=O)nc2-3)cc1,4.21,> 100,3.12,32.2,4.7,> 100,4.99,> 100,,,6.15,> 100,3.69,3.63,> 100,4.46,83.4,35.1,> 100,12.7
COc1ccc(-c2coc3cc(OC)cc(O)c3c2=O)cc1,,> 100,,> 100,,> 100,,> 100,,> 100,,> 100,,,> 100,,> 100,,> 100,
Cc1ccc(NC(=O)c2nc(S(C)=O)oc2-c2ccc(F)cc2)cc1Nc1nccc(-c2cccnc2)n1 (centres undefined),,,,,2.23,4.64,1.81,3.73,10.5,25.7,2.15,4.61,1.73,1.87,3.39,1.89,2.89,3.14,3.85,1.34
Oc1cc2c(cc1O)-c1[nH]ncc1CC2,,> 100,,> 100,,> 100,,> 100,,> 100,,> 100,,,,,> 100,79.1,> 100,
CC(=O)OCC1OC(Sc2ccccn2)C=CC1OC(C)=O (centres undefined),,,,,,> 100,,> 100,,> 100,,> 100,,,> 100,,> 100,> 100,> 100,
Cc1cccc(NC(=O)CC#N)c1Cl,,> 100,,> 100,,,,> 100,,> 100,,> 100,,,> 100,,> 100,> 100,> 100,
CC1=CC2C(C(C)C)CC1C1C(=O)OC(=O)C21 (centres undefined),,,,> 100,,> 100,,> 100,,> 100,,> 100,,,58.8,,> 100,> 100,> 100,
CC[C@]12CCCN3CC[C@]4(C(=C(C(=O)OC)C1)Nc1ccccc14)[C@@H]32,11.8,32.8,13.7,28.5,17.6,38.9,16.4,33.2,,,18,37.8,10.9,17,31.1,16.8,29.7,24.1,45.6,13
